# From patent publication US11974551B2, “L-serine compositions, methods and uses for treating neurodegenerative diseases and disorders” (priority 2011, dated 2024)
# “Also recorded” adds a separate entry of the source.
# Tests used:
# [1] = test system: Drosophila fruit flies; assay: Fruit fly feeding: mortality after three days; format: in vivo, Drosophila melanogaster; conditions: media with 25 mM BMAA and 25 mM L-Serine, three days
# Procedure: Preliminary studies show the ability of L-Serine to prevent misincorporation of BMAA into proteins. In a series of feeding experiments, Drosophila fruit flies were fed four different types of media: 1) standard fruit fly media with 0 mM BMAA (control), 2) media enriched with 25 mM L-Serine, 3) media with 25 mM BMAA added, and 4) media with both 25 mM BMAA and 25 mM L-Serine added for three days of feeding. Misincorporation of BMAA into proteins was then analyzed using triple quadrupole LC/MS/MS and Orbital Trap LC/MS/MS.
# Equally interesting is the analysis of the protective value of L-Serine on Drosophila dosed with BMAA. Fruit flies fed with BMAA enriched media (third set of blocks) suffered a 40% mortality after three days, while flies fed with Serine plus BMAA (fourth set of blocks) had no mortality (FIG. 8). These flies were rescued by L-Serine.
# [2] = test system: SH-SY5Y cells; assay: Annexin V binding (apoptosis) by flow cytometry; format: cell-based, human; conditions: 500 μM BMAA, co-incubation with CHX 2 μg/mL or L-serine 50 μM
# Procedure: Late-stage apoptosis or necrosis was measured by simultaneous staining with propidium iodide and Annexin V using the BD Pharmingen™ Annexin V—FITC apoptosis detection kit and flow cytometry performed as described previously (Dunlop, et al., Biochem J 435, 207-216 (2010)).
# [3] = test system: Drosophila fruit flies; assay: Fruit fly feeding: misincorporation of BMAA into proteins by LC/MS/MS; format: in vivo, Drosophila melanogaster; conditions: media with 25 mM BMAA and 25 mM L-Serine vs 25 mM BMAA, three days of feeding
# Procedure: Thirty flies were from each treatment were weighed and sonicated (Fisher Scientific sonic dismembrator model 100; 2 watts for 30 secs) in 10% trichloroacetic acid (TCA 72 μg/μl). TCA extraction was completed in two steps 20 h at 4° C. using one half the TCA volume followed by centrifugation ([…] for 3 min, Labnet Spectrafuge™ 16M microcentrifuge) and removal of supernatant. This was followed by a second sonication and extraction, 5 hours at room temperature using an equal volume of TCA, followed by centrifugation and removal of supernatant. The supernatants were pooled (with the exception of 50 μl removed from the last extraction) and centrifuge filtered (0.22 μm Ultrafree®-MC, Millipore). The remaining protein pellet was transferred to a glass vial and hydrolyzed in 6 M HCl for 16 hours at 110° C. (58 μg/μl). […] Extracts were diluted and derivatized with 6-aminoquinolyl-N-hydroxysuccinimidyl carbamate (AQC) and analyzed by LC-MS/MS.
# 6-Aminoquinolyl-N-hydroxysuccinimidyl carbamate derivates (AQC Waters AccQTag reagent, P/N WAT052880) were analyzed using a triple quadrupole instrument (Thermo Scientific Finnigan TSQ Quantum Ultra, San Jose, CA) after separation by a Waters Acquity-UHPLC system with a Binary Solvent Manager, Sample Manager and a Waters AccQTag Ultra column (part#186003837, 2.1×100 mm) at 55° C. […]
structure (smiles),measurement,setting,value
N[C@@H](CO)C(=O)O [L-serine],mortality of flies fed BMAA plus L-Serine,[1],blocks BMAA induced mortality
same,mortality of flies fed BMAA plus L-Serine,[1]; listed as L-Serine,no mortality
same,effect on BMAA-induced Annexin V binding / apoptosis,[2],abrogated; also recorded: significantly reduced
same,effect on amount of BMAA misincorporation into proteins,[3],reduces BMAA incorporation into proteins
same,effect on amount of BMAA misincorporation into proteins,[3]; listed as L-Serine,reduced by half
